The target in one series is pneumolysin (Streptococcus pneumoniae serotype 2, UniProt Q04IN8). In words: Inhibition of the haemolytic activity of pneumolysin (sheep erythrocytes). It is filed as cell-based. The method, then:
The basis of this assay is that when pneumolysin is added to red blood cells, it induces their lysis and leads to the release of haemoglobin. In the presence of an inhibitory compound, pneumolysin-induced lysis is abolished, the red blood cells pellet at the bottom of the microtitre plate well and the supernatant is clear. However, if the compound is not inhibitory, the red blood cells are lysed and haemoglobin is released into the supernatant.
Test compound solutions (typically at 5 mM in DMSO) were diluted 1:1 in 100% DMSO. The compounds were then two-fold serially diluted in 100% DMSO across 11 wells of 96-well round-bottomed microtitre plate. PBS was then added to all the wells to achieve a 1:10 dilution of the compound in PBS. Pneumolysin was then added at a concentration equal to its LD100. Plates were then incubated at 37° C. for 30-40 min. After the incubation period, an equal volume of 4% (v/v) sheep erythrocyte suspension was added to each well and the plates incubated again at 37° C., for at least 30 min. Controls with only erythrocytes in PBS (control for no lysis) or erythrocytes plus pneumolysin (control for lysis) were prepared following the same procedure. Following the incubation with the erythrocytes, the Absorbance at 595 nm of each well was measured and the data used to determine the IC50 for each test compound. The IC50 values were determined using non-linear regression curve fitting. For that, the Log of the concentrations of the test compound was plotted against the percentage inhibition, estimated from the A595 values, followed by fitting a Hill Slope to the data.

The nature of series [1]: Solubility testing in PBS or 0.9% saline. In kind it is physicochemical. To be noted: for solubility: aqueous buffer, thermodynamic from solid, PBS. The method, then:
Solubility studies were performed by charging a vial with 5-10 mg of compound followed by the 40 addition of PBS solution or 0.9% saline to achieve a concentration of 100 mg/ml. If solubility was not observed the solution was diluted to concentrations of 50 mg/ml, 25 mg/ml and 4 mg/ml consecutively until complete solubility was observed.

Series [2] in a line: Chemical stability assessment in PBS at 37.5° C. (HPLC). It is filed as physicochemical. To be noted: buffer, pH 6.2, read-out: Chemical stability at pH 6.2-7.2 (t1/2) (converted). The method, then: Stability studies were carried out by dissolving 1-2 mg of compound in DMSO (1 mL) followed by addition of 0.4 mL of the resulting solution to stirred PBS solution (9.6 mL) at 37.5° C. A sample (ca. 0.5 mL) was immediately taken for HPLC analysis. Further samples were then taken for analysis at various timepoints thereafter. Half-lives were determined from the decrease in concentration of compound with respect to time.
Stability studies were performed by dissolving 1-2 mg of compound in DMSO (1 ml) followed by addition of 0.4 ml of the resulting solution to stirred PBS (9.6 ml) at 37.5° C. A sample (˜0.5 ml) was immediately taken for HPLC analysis. Further samples were then taken for analysis at various time-points thereafter. Half-lives were determined from the decrease in concentration of compound with respect to time.

A short description of series [3]: Conversion of prodrug to parent active compound in mouse plasma (LC-MS/MS). To be noted: 37° C., 10 μM start; for [ ] (μM) Prodrug remaining, t0 min.: 0 min; for [ ] (μM) Prodrug remaining, t15 min.: 15 min; for [ ] (μM) Prodrug remaining, t30 min.: 30 min; for [ ] (μM) Prodrug remaining, t60 min.: 60 min; for [ ] (μM) Prodrug remaining, t120 min.: 120 min. In kind it is in vitro ADME. How it is done:
(§1) The samples were then analysed by LC-MS/MS to obtain the amount of parent active compound appearing and prodrug derivative remaining over time.
(§2) Prodrug derivatives were assessed in the mouse, rat or human plasma stability assay at a concentration of 10 μM. Test compounds were diluted in DMSO to a final stock concentration of 10 mM. For the purpose of the assay, the stocks prepared were further diluted in DMSO to a concentration of 400 μM and 5 μL were added to 195 μL of mouse, rat or human plasma (pH 7.4) and then incubated at 37° C. The final concentration of DMSO in the plate was 2.5% (v/v). Reactions were terminated at 0, 15, 30, 60 and 120 min after incubation by adding 400 μl of acetonitrile containing 0.55 μM metoprolol and 1% (v/v) formic acid. The plate was then centrifuged at 3000 rpm, for 45 min, at 4° C. 80 μL of supernatant were transferred into a conical bottom 96 well glass coated plate. 40 μL of water were added prior to analysis for prodrug derivative and active species by LC-MS/MS. This assay was performed by a contract research organisation, Cyprotex Discovery Limited, UK, at the request of the inventors at Leicester.
(§3) (1) The parent active compound was quantified using a 6 point calibration curve prepared in deactivated mouse, rat or human plasma. (2) The percentage of prodrug compound remaining at each time point relative to 0 min sample was calculated from LC-MS/MS peak area ratios (compound peak area/internal standard peak area). This percentage was then used to determine the concentration of the prodrug compound at each time point in reference to the starting concentration (10 μM) at time 0 min.

Series [4] in a line: Conversion of prodrug to parent active compound in rat plasma (LC-MS/MS). It is filed as in vitro ADME. To be noted: 37° C., 10 μM start; for [ ] (μM) Prodrug remaining, t0 min.: 0 min; for [ ] (μM) Prodrug remaining, t15 min.: 15 min; for [ ] (μM) Prodrug remaining, t30 min.: 30 min; for [ ] (μM) Prodrug remaining, t60 min.: 60 min; for [ ] (μM) Prodrug remaining, t120 min.: 120 min. How it is done:
as §1, §2, §3

Series [5] in a line: Conversion of prodrug to parent active compound in human plasma (LC-MS/MS). It is filed as in vitro ADME. To be noted: 37° C., 10 μM start; for [ ] (μM) Prodrug remaining, t0 min.: 0 min; for [ ] (μM) Prodrug remaining, t15 min.: 15 min; for [ ] (μM) Prodrug remaining, t30 min.: 30 min; for [ ] (μM) Prodrug remaining, t60 min.: 60 min. The method, then:
as §1, §2, §3

Structures can show the parent of a compound that is named as a salt. Where two headings read alike, the source gives them in different places.

Here are results for seven compounds from patent US20160130224A1, “Novel Pyrrole Derivatives” (priority 2013, published 2016).

Chain of pneumolysin (Q04IN8 whole entry): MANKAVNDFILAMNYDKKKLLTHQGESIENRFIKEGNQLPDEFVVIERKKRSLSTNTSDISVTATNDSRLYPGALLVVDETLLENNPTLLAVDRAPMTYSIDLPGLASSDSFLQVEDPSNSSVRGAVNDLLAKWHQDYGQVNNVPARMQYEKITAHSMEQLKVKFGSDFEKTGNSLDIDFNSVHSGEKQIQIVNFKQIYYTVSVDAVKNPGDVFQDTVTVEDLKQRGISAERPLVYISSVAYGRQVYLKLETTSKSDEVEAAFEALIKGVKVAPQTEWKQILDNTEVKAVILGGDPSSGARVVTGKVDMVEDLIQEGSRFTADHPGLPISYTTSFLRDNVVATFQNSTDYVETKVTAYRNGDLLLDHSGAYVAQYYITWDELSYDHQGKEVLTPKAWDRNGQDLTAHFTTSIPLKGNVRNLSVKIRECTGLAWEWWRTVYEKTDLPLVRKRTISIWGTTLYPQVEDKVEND

As for `COc1ccc(-n2c(C(=O)N(C)C)c(OC(=O)C(C)C)c(OC(=O)C(C)C)c2C(=O)N(C)C)cc1` [UL1-114, 2,5-Bis(dimethylcarbamoyl)-1-(4-methoxyphenyl)-1H-pyrrole-3,4-diyl bis(2-methylpropanoate)], the IC50 (in general, the concentration needed to halve the response being measured) against pneumolysin is 19500 nM.

`COc1ccc(-n2c(C(=O)N(C)C)c(OC(=O)c3cccc(COP(=O)(O)O)c3)c(OC(=O)c3cccc(COP(=O)(O)O)c3)c2C(=O)N(C)C)cc1.[Na+].[Na+]` [UL6-006, Sodium ((((2,5-bis(dimethylcarbamoyl)-1-(4-methoxyphenyl)-1H-pyrrole-3,4-diyl)bis(oxy))bis(carbonyl))bis(3,1-phenylene))bis(methylene) bis(hydrogenphosphate)] came in with a 50% inhibitory concentration (IC50) against pneumolysin of 300 nM. Also, the solubility – broadly, the dissolved amount per volume that the medium holds – in series [1] (pH 5-6) is at least 50 mg/mL. For the same compound, the half-life in series [2] is 1770 min. Moreover, in series [3], the “[ ] (μM) Prodrug remaining, t0 min.” value turned out to be 10.00 µM; the “[ ] (μM) Prodrug remaining, t15 min.” value was 2.05 µM; the “[ ] (μM) Prodrug remaining, t30 min.” value was 0.79 µM; the “[ ] (μM) Prodrug remaining, t60 min.” value came out at 0.10 µM. Also, in series [3], the “[ ] (μM) Prodrug remaining, t120 min.” value was 0.04 µM. Besides, in series [4], the “[ ] (μM) Prodrug remaining, t0 min.” value is 10.00 µM; the “[ ] (μM) Prodrug remaining, t15 min.” value amounted to 8.90 µM; the “[ ] (μM) Prodrug remaining, t30 min.” value came to 1.17 µM; the “[ ] (μM) Prodrug remaining, t60 min.” value worked out at 0.21 µM. In series [4], the “[ ] (μM) Prodrug remaining, t120 min.” value was found to be 0.07 µM. In addition, in series [5], the “[ ] (μM) Prodrug remaining, t0 min.” value was 10.00 µM; the “[ ] (μM) Prodrug remaining, t15 min.” value is 2.15 µM; the “[ ] (μM) Prodrug remaining, t30 min.” value is 0.05 µM; the “[ ] (μM) Prodrug remaining, t60 min.” value stood at 0.01 µM.

On pneumolysin, `COc1ccc(-n2c(C(=O)N(C)C)c(OC(=O)C(C)C)c(OC(=O)C(C)C)c2C(=O)N2CCN(C)CC2)cc1.Cl` [UL6-002, 2-(Dimethylcarbamoyl)-1-(4-methoxyphenyl)-5-(4-methylpiperazine-1-carbonyl)-1H-pyrrole-3,4-diyl bis(2-methylpropanoate) hydrochloride] had a half-maximal inhibitory concentration (IC50) of 2000 nM. For the same compound, in series [3], the “[ ] (μM) Prodrug remaining, t0 min.” value is 10.00 µM; the “[ ] (μM) Prodrug remaining, t15 min.” value is 0.00 µM; the “[ ] (μM) Prodrug remaining, t30 min.” value worked out at 0.00 µM; the “[ ] (μM) Prodrug remaining, t60 min.” value came to 0.02 µM. In addition, in series [3], the “[ ] (μM) Prodrug remaining, t120 min.” value stood at 0.00 µM.

On to `CCOC(=O)c1c(O)c(O)c(C(=O)N(C)C)n1-c1ccc(OC)cc1` [UL1-012, Ethyl 5-(dimethylcarbamoyl)-3,4-dihydroxy-1-(4-methoxyphenyl)-1H-pyrrole-2-carboxylate], for which the half-maximal inhibitory concentration (IC50) was 200 nM on pneumolysin (Table 1, pneumolysin at LD100, sheep erythrocytes, 37° C., read-out: IC50) and 200 nM at pneumolysin (Table 2, pneumolysin at LD100, sheep erythrocytes, 37° C., read-out: IC50). For the same compound, the “Solubility in 0.9% (w/v) saline, pH 6.5 or PBS pH 7.2” value in series [1] (result in words) is “Not soluble”. In addition, the half-life in series [2] is 61 min.

The compound `CCOC(=O)c1c(OC(=O)c2ccc(COP(=O)([O-])O)cc2)c(OC(=O)c2ccc(COP(=O)([O-])O)cc2)c(C(=O)N(C)C)n1-c1ccc(OC)cc1.[Na+].[Na+]` [UL6-008, Sodium ((((2-(dimethylcarbamoyl)-5-(ethoxycarbonyl)-1-(4-methoxyphenyl)-1H-pyrrole-3,4-diyl)bis(oxy))bis(carbonyl))bis(4,1-phenylene))bis(methylene) bis(hydrogenphosphate)] had an IC50 against pneumolysin of 1900 nM. For the same compound, in series [1] (pH 6), the solubility is at least 100 mg/mL. In addition, the half-life in series [2] is 8640 min. For the same compound, in series [3], the “[ ] (μM) Prodrug remaining, t0 min.” value stood at 10.00 µM; the “[ ] (μM) Prodrug remaining, t15 min.” value was found to be 4.53 µM; the “[ ] (μM) Prodrug remaining, t30 min.” value came to 1.70 µM; the “[ ] (μM) Prodrug remaining, t60 min.” value was 0.47 µM. Moreover, the “[ ] (μM) Prodrug remaining, t120 min.” value in series [3] stood at 0.09 µM. Moreover, in series [4], the “[ ] (μM) Prodrug remaining, t0 min.” value is 10.00 µM; the “[ ] (μM) Prodrug remaining, t15 min.” value is 2.90 µM; the “[ ] (μM) Prodrug remaining, t30 min.” value came to 1.00 µM; the “[ ] (μM) Prodrug remaining, t60 min.” value was found to be 0.21 µM. Also, the “[ ] (μM) Prodrug remaining, t120 min.” value in series [4] is 0.07 µM. Also, in series [5], the “[ ] (μM) Prodrug remaining, t0 min.” value stood at 10.00 µM; the “[ ] (μM) Prodrug remaining, t15 min.” value is 4.89 µM; the “[ ] (μM) Prodrug remaining, t30 min.” value is 5.10 µM; the “[ ] (μM) Prodrug remaining, t60 min.” value turned out to be 6.06 µM. For the same compound, in series [5] (120 min), the “[ ] (μM) Prodrug remaining, t120 min.” value was 4.52 µM.

Turning to `COc1ccc(-n2c(C(=O)N(C)C)c(OC(=O)C(C)(C)C)c(OC(=O)C(C)(C)C)c2C(=O)N2CCN(C)CC2)cc1` [UL6-004, 2-(Dimethylcarbamoyl)-1-(4-methoxyphenyl)-5-(4-methylpiperazine-1-carbonyl)-1H-pyrrole-3,4-diyl bis(2,2-dimethylpropanoate) hydrochloride], on pneumolysin, the midpoint of inhibition, the IC50, lay at 1600 nM. In series [3], the “[ ] (μM) Prodrug remaining, t0 min.” value was found to be 10.00 µM; the “[ ] (μM) Prodrug remaining, t15 min.” value was 10.00 µM; the “[ ] (μM) Prodrug remaining, t30 min.” value was found to be 9.88 µM; the “[ ] (μM) Prodrug remaining, t60 min.” value worked out at 9.80 µM. For the same compound, in series [3], the “[ ] (μM) Prodrug remaining, t120 min.” value came to 9.63 µM.

In the case of `COc1ccc(-n2c(C(=O)N(C)C)c(O)c(O)c2C(=O)N2CCN(C)CC2)cc1` [UL1-027, 3,4-Dihydroxy-1-(4-methoxyphenyl)-N,N-dimethyl-5-(4-methylpiperazine-1-carbonyl)-1H-pyrrole-2-carboxamide], inhibition against pneumolysin was half-maximal at 200 nM (IC50).
